{"source": "patent US8192962B2", "about": "“Processes for detecting toxic substances” (Daikin Industries, Ltd., priority 2001, dated 2012)", "tested_on": "Genes belonging to other category", "test": "DNA chip mRNA expression in yeast, genes belonging to other category (Table 9)", "format": "cell-based, Saccharomyces cerevisiae S288C", "in_short": "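Values are treated/untreated fluorescence ratios from a whole-genome yeast DNA chip hybridized over 12 hours at 65° C with Cy3- or Cy5-labelled cDNA from poly(A) mRNA. Log-phase S288C yeast in YPD at 25° C had received a single toxic chemical for two hours, dosed to slow growth without killing.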", "data": [{"molecule": "CCCCCCCCCCCCOS(=O)(=O)[O-].[Na+]", "note": "[(18), sodium lauryl sulfate]", "values": [{"measurement": "The level of expressed mRNA in the presence of chemical substance/The level of expressed mRNA in the absence of chemical substance", "setting": "yeast gene YJL035C", "result": 1.0}, {"measurement": "The level of expressed mRNA in the presence of chemical substance/The level of expressed mRNA in the absence of chemical substance", "setting": "yeast gene YJL073W", "result": 1.0}, {"measurement": "The level of expressed mRNA in the presence of chemical substance/The level of expressed mRNA in the absence of chemical substance", "setting": "yeast gene YJL089W", "result": 1.1}, {"measurement": "The level of expressed mRNA in the presence of chemical substance/The level of expressed mRNA in the absence of chemical substance", "setting": "yeast gene YJL103C", "result": 1.2}, {"measurement": "The level of expressed mRNA in the presence of chemical substance/The level of expressed mRNA in the absence of chemical substance", "setting": "yeast gene YJL116C", "result": 0.7}, {"measurement": "The level of expressed mRNA in the presence of chemical substance/The level of expressed mRNA in the absence of chemical substance", "setting": "yeast gene YJL164C", "result": 1.7}, {"measurement": "The level of expressed mRNA in the presence of chemical substance/The level of expressed mRNA in the absence of chemical substance", "setting": "yeast gene YJL210W", "result": 1.0}, {"measurement": "The level of expressed mRNA in the presence of chemical substance/The level of expressed mRNA in the absence of chemical substance", "setting": "yeast gene YJR004C", "result": 0.4}, {"measurement": "The level of expressed mRNA in the presence of chemical substance/The level of expressed mRNA in the absence of chemical substance", "setting": "yeast gene YJR019C", "result": 1.4}, {"measurement": "The level of expressed mRNA in the presence of chemical substance/The level of expressed mRNA in the absence of chemical substance", "setting": "yeast gene YJR036C", "result": 1.2}, {"measurement": "The level of expressed mRNA in the presence of chemical substance/The level of expressed mRNA in the absence of chemical substance", "setting": "yeast gene YJR047C", "result": 0.9}, {"measurement": "The level of expressed mRNA in the presence of chemical substance/The level of expressed mRNA in the absence of chemical substance", "setting": "yeast gene YJR050W", "result": 1.1}, {"measurement": "The level of expressed mRNA in the presence of chemical substance/The level of expressed mRNA in the absence of chemical substance", "setting": "yeast gene YJR058C", "result": 1.2}, {"measurement": "The level of expressed mRNA in the presence of chemical substance/The level of expressed mRNA in the absence of chemical substance", "setting": "yeast gene YJR086W", "result": 1.6}, {"measurement": "The level of expressed mRNA in the presence of chemical substance/The level of expressed mRNA in the absence of chemical substance", "setting": "yeast gene YJR117W", "result": 0.9}, {"measurement": "The level of expressed mRNA in the presence of chemical substance/The level of expressed mRNA in the absence of chemical substance", "setting": "yeast gene YJR119C", "result": 0.9}, {"measurement": "The level of expressed mRNA in the presence of chemical substance/The level of expressed mRNA in the absence of chemical substance", "setting": "yeast gene YJR123W", "result": 0.9}, {"measurement": "The level of expressed mRNA in the presence of chemical substance/The level of expressed mRNA in the absence of chemical substance", "setting": "yeast gene YJR145C", "result": 0.9}, {"measurement": "The level of expressed mRNA in the presence of chemical substance/The level of expressed mRNA in the absence of chemical substance", "setting": "yeast gene YKL007W", "result": 1.3}, {"measurement": "The level of expressed mRNA in the presence of chemical substance/The level of expressed mRNA in the absence of chemical substance", "setting": "yeast gene YKL008C", "result": 1.9}, {"measurement": "The level of expressed mRNA in the presence of chemical substance/The level of expressed mRNA in the absence of chemical substance", "setting": "yeast gene YKL013C", "result": 1.7}, {"measurement": "The level of expressed mRNA in the presence of chemical substance/The level of expressed mRNA in the absence of chemical substance", "setting": "yeast gene YKL039W", "result": 1.3}, {"measurement": "The level of expressed mRNA in the presence of chemical substance/The level of expressed mRNA in the absence of chemical substance", "setting": "yeast gene YKL041W", "result": 1.3}, {"measurement": "The level of expressed mRNA in the presence of chemical substance/The level of expressed mRNA in the absence of chemical substance", "setting": "yeast gene YKL056C", "result": 1.2}, {"measurement": "The level of expressed mRNA in the presence of chemical substance/The level of expressed mRNA in the absence of chemical substance", "setting": "yeast gene YKL079W", "result": 1.2}, {"measurement": "The level of expressed mRNA in the presence of chemical substance/The level of expressed mRNA in the absence of chemical substance", "setting": "yeast gene YKL096W", "result": 0.7}, {"measurement": "The level of expressed mRNA in the presence of chemical substance/The level of expressed mRNA in the absence of chemical substance", "setting": "yeast gene YKL117W", "result": 1.8}, {"measurement": "The level of expressed mRNA in the presence of chemical substance/The level of expressed mRNA in the absence of chemical substance", "setting": "yeast gene YKL165C", "result": 1.0}, {"measurement": "The level of expressed mRNA in the presence of chemical substance/The level of expressed mRNA in the absence of chemical substance", "setting": "yeast gene YKL171W", "result": 1.2}, {"measurement": "The level of expressed mRNA in the presence of chemical substance/The level of expressed mRNA in the absence of chemical substance", "setting": "yeast gene YKL193C", "result": 2.3}, {"measurement": "The level of expressed mRNA in the presence of chemical substance/The level of expressed mRNA in the absence of chemical substance", "setting": "yeast gene YLR093C", "result": 3.2}, {"measurement": "The level of expressed mRNA in the presence of chemical substance/The level of expressed mRNA in the absence of chemical substance", "setting": "yeast gene YLR120C", "result": 2.9}, {"measurement": "The level of expressed mRNA in the presence of chemical substance/The level of expressed mRNA in the absence of chemical substance", "setting": "yeast gene YLR136C", "result": 1.4}, {"measurement": "The level of expressed mRNA in the presence of chemical substance/The level of expressed mRNA in the absence of chemical substance", "setting": "yeast gene YLR178C", "result": 3.6}, {"measurement": "The level of expressed mRNA in the presence of chemical substance/The level of expressed mRNA in the absence of chemical substance", "setting": "yeast gene YLR206W", "result": 1.2}, {"measurement": "The level of expressed mRNA in the presence of chemical substance/The level of expressed mRNA in the absence of chemical substance", "setting": "yeast gene YLR250W", "result": 2.2}, {"measurement": "The level of expressed mRNA in the presence of chemical substance/The level of expressed mRNA in the absence of chemical substance", "setting": "yeast gene YLR327C", "result": 5.3}, {"measurement": "The level of expressed mRNA in the presence of chemical substance/The level of expressed mRNA in the absence of chemical substance", "setting": "yeast gene YLR356W", "result": 1.0}, {"measurement": "The level of expressed mRNA in the presence of chemical substance/The level of expressed mRNA in the absence of chemical substance", "setting": "yeast gene YLR362W", "result": 1.3}, {"measurement": "The level of expressed mRNA in the presence of chemical substance/The level of expressed mRNA in the absence of chemical substance", "setting": "yeast gene YLR391W", "result": 0.9}, {"measurement": "The level of expressed mRNA in the presence of chemical substance/The level of expressed mRNA in the absence of chemical substance", "setting": "yeast gene YLR429W", "result": 0.9}, {"measurement": "The level of expressed mRNA in the presence of chemical substance/The level of expressed mRNA in the absence of chemical substance", "setting": "yeast gene YML130C", "result": 1.2}, {"measurement": "The level of expressed mRNA in the presence of chemical substance/The level of expressed mRNA in the absence of chemical substance", "setting": "yeast gene YMR004W", "result": 1.3}, {"measurement": "The level of expressed mRNA in the presence of chemical substance/The level of expressed mRNA in the absence of chemical substance", "setting": "yeast gene YMR091C", "result": 1.2}, {"measurement": "The level of expressed mRNA in the presence of chemical substance/The level of expressed mRNA in the absence of chemical substance", "setting": "yeast gene YMR094W", "result": 1.0}, {"measurement": "The level of expressed mRNA in the presence of chemical substance/The level of expressed mRNA in the absence of chemical substance", "setting": "yeast gene YMR104C", "result": 1.9}, {"measurement": "The level of expressed mRNA in the presence of chemical substance/The level of expressed mRNA in the absence of chemical substance", "setting": "yeast gene YMR110C", "result": 2.5}, {"measurement": "The level of expressed mRNA in the presence of chemical substance/The level of expressed mRNA in the absence of chemical substance", "setting": "yeast gene YMR112C", "result": 1.6}]}]}
